Experiments:
[1] = In vitro skin permeation study, flow-through Franz diffusion cell, ViaDerm (micro-channel) treated vs intact skin; format: in vitro ADME, porcine; conditions: for Total permeated amount: after 24 hr
Description: The density of the microelectrode array was 100 microelectrodes/cm^2. […] The permeability of the cosmetic agents through porcine skin was measured in vitro with a flow-through Franz diffusion cell system (Laboratory Glass Apparatus, Berkeley, Calif.). […] Skin micro-channeling was performed in cells defined as VD (ViaDerm) application group, and then TEWL was measured again to control the operation. The skin pieces were placed on the receiver chambers with the stratum corneum facing upwards, and the donor chambers were clamped in place. […] Samples from the acceptor solutions were collected into tubes (using a fraction collector, Retriever IV, ISCO, Lincoln, Nebr., USA) at predetermined times for up to 24 hr period. The samples were kept at 4° C. until analyzed by HPLC. Samples from the acceptor solutions (10-50 μl) were injected into HPLC system (Waters) equipped with a pre-packed LiChrospher C18 column (150×3.9 mm, 5 μm; Waters), and a UV detector. […] The Salicylic acid samples were separated using an isocratic mobile phase containing 5% methanol 25% Acetonitrile and 0.01 mol/l KH2PO4/H3PO4 buffer pH 2.3 in H2O, at a flow rate 1 ml/min. The detection of salicylic acid was performed at a wavelength of 237 nm. […] The detection of hydroquinone was performed at a wavelength of 280 nm. […] The permeation efficacy is defined as the % of penetrated agent out of total amount of the agent applied on the skin.

[2] = relative to hydroquinone; cited from earlier work
[3] = over a 4 to 6 month period, systemic; cited from earlier work
[4] = ViaDerm treated skin, after 24 h, 0.25 ml solution in donor chamber
[5] = ViaDerm treated skin, 0.25 ml solution in donor chamber
[6] = after 3 h, 0.25 ml solution in donor chamber
[7] = after 24 h, 0.25 ml solution in donor chamber
[8] = control untreated skin, 0.25 ml solution in donor chamber
[9] = untreated skin, after 24 h, 0.25 ml solution in donor chamber

Structure (SMILES)	Permeation efficacy [1, 4] [%]	Total permeated amount [1, 5] [μg/cm^2]	Difference in permeated amount, ViaDerm treated compared to untreated skin [1, 6] [fold]	Difference in permeated amount, ViaDerm treated compared to untreated skin [1, 7] [fold]	Total permeated amount [1, 8] [μg/cm^2]	Permeation efficacy [1, 9] [%]	Quantity required to achieve a similar skin whitening effect, compared to the quantity of hydroquinone used [2]	other results
Oc1ccc(O)cc1 [hydroquinone]	27	1824	39	29	62	1	–	–
O=C1O[C@H]([C@@H](O)CO)C(O)=C1O [ascorbic acid]	–	–	–	–	–	–	17 times	–
OC[C@H]1O[C@@H](Oc2ccc(O)cc2)[C@H](O)[C@@H](O)[C@@H]1O [arbutin]	–	–	–	–	–	–	over 100 times	–
CC1=C(/C=C/C(C)=C/C=C/C(C)=C\C(=O)O)C(C)(C)CCC1 [isotretinoin]	–	–	–	–	–	–	–	Acne cleared by treatment [3]: ≤ 85%
O=C(O)c1ccccc1O [salicylic acid]	62	820	17	10	84	4	–	–
Cn1c(=O)c2c(ncn2C)n(C)c1=O [caffeine]	–	–	–	–	–	–	–	Caffeine flux (plateau) ([1]; ViaDerm pretreated skin, after 6 hours, 0.25 ml of 1% w/v aqueous solution): 18.5 ± 2.2 µg/mL; Permeation efficacy ([1]; ViaDerm pretreated skin, after 16 hours, 0.25 ml of 1% w/v solution): 37.1±4.8%; Permeation efficacy, ViaDerm in comparison to untreated skin ([1]; after 16 hours, 0.25 ml of 1% w/v solution): 10 fold; Caffeine flux ([1]; control untreated skin, after 6 hours, 0.25 ml of 1% w/v aqueous solution): 0.4 ± 0.3 µg/mL; Cumulative permeability through ViaDerm treated skin compared to intact skin ([1]; result in words (FIGS. 1, 2, 4)): enhanced; Permeation efficacy ([1]; untreated skin, after 16 hours, 0.25 ml of 1% w/v solution): 3.6±2.6%
